Reference: patent publication US11091476B2, “Protein kinase inhibitors, preparation method and medical use thereof” (Gan & Lee Pharmaceuticals, priority 2015, dated 2021)
Entries after “also recorded” stand apart in the source; their conditions may differ. Read-outs that look alike come from different tables or passages of the source.

How the values were obtained:
[1] = test system: Human glioma cell line U87 MG; assay: Inhibition of proliferation of the U87 MG cell line (DAPI, In Cell Analyzer); assay type: cell-based; conditions: for IC50: Homo sapiens, U-87 MG, 72 hours incubation, read-out: IC50, proliferation of U87MG Cell Line
Method: (§1) The inhibition rate of each compound at each concentration point was calculated by the formula as follows and curve fitting was performed by GraphPad Prism 5 software to obtain the IC50 value.

[2] = Plasma and brain exposure levels after single intragastric administration; assay type: in vivo, CD-1 mice; conditions: for Cmax: read-out: Blood concentration Cmax, Plasma
Method: The CD-1 mice were used as the test animals, the concentrations of the drugs in the plasma and brain tissue of mice at different time points after single intragastric administration of the representative compound of this disclosure were determined by LC/MS/MS, so as to study the plasma level and brain exposure level of the compounds of the disclosure in mice.
For each test drug, 12 male CD-1 mice were administered intragastrically at a dose of 10 mg/kg and an administration volume of 10 ml/kg after fasting overnight.
The whole brain was collected, mashed and frozen in liquid nitrogen. Ten hours after administration, the remaining animals were sacrificed, whole blood was collected by cardiac puncture, and the whole brain was collected, mashed and frozen in liquid nitrogen.
The whole brain was collected, mashed and frozen in liquid nitrogen. 48 hours after administration, the remaining animals were sacrificed, whole blood was collected by cardiac puncture, and the whole brain was collected, mashed and frozen in liquid nitrogen.
Treatment of the whole blood sample: The collected whole blood was anticoagulated with EDTA-K2, and centrifuged, the supernatant was removed, and the residue was frozen and stored at −20° C. until the sample was analyzed by LC-MS/MS.
Brain homogenate sampling: Brain homogenate were dispersed with PBS (pH=7.4): MeOH (v:v, 2:1) solution in a volume 5 times of the volume of the brain homogenate. 100 μl of solution was taken, and the protein therein was precipitated with 600 μl IS. The mixture was centrifuged at 13,000 rpm and 20-25° C. for 15 minutes. 50 μL of the supernatant was mixed with 150 μL of water containing 0.3% FA and centrifuged at 4° C. 5 μL of the sample was analyzed by LC-MS/MS.
The linear range of sample analysis was 1-2000 ng/ml, and the lowest quantification limit was 1 ng/ml.

[3] = biological target: Pim-1 (Homo sapiens (Human), UniProt P11309); assay: Kinase inhibitory activity on Pim-1; assay type: biochemical
Method: 1.2 Experimental Preparation • 1.2.1 Preparation of Kinase Reaction Buffer I: The 5×Reaction Buffer A (Promega; V307A-C) provided in the kit was mixed and diluted with MILLI-Q® H2O and 0.1 M DTT (dithiothreitol) to give 4× kinase buffer, and then MILLI-Q® H2O was further added to finally formulate the solution into 1× Kinase buffer.
1 μl of 10 mM standard substance stock solution was taken and added to 9 μl of kinase reaction buffer I and mixed well; then 90 μl of kinase reaction buffer I was added and mixed well; then 100 μl of kinase reaction buffer I was added and mixed well. The final concentration was 50 μM. • b. 40 μl of kinase reaction buffer II was added into B2 to B10 of a 96-well plate, and 50 μl of the above solution was added into B1; • c. 10 μl of solution was taken from well B1, added into B2, and mixed well; then 10 μl of the resulting solution was taken and added into B3, and dilution was carried out in sequence to B9, so as to obtain control solutions that are diluted by 5-fold sequentially. • (2) Preparation of test compound solution: • a. Test compound solutions at a certain concentration were taken, respectively, diluted with kinase reaction buffer I to a final concentration of 50 μM compound solution; • b. 40 μl of kinase reaction buffer II was added into H2 to H10 of the 96-well plate; and 50 μl of the above solution was added into H1; • c. 10 μl of solution was taken from well H1, added into H2, and mixed well; then 10 μl of the resulting solution was taken and added into H3, and dilution was carried out in sequence to H9, so as to obtain test compound solutions that are diluted by 5-fold sequentially. • 1.2.4 Preparation of a mixed solution of reaction substrate and ATP: • a. Preparation of ATP solution: • 200 μl of 0.1 mM ATP solution: 2 μl of 10 mM ATP was added to 198 μl of kinase reaction buffer I; • 300 μl of 50 μM ATP solution: 150 μl of kinase reaction buffer I was added to 150 μl of the above 0.1 mM ATP solution; • b. Preparation of 300 μl of reaction substrate solution: • 150 μl 1 μg/μl reaction substrate stock solution was added to 150 μl kinase reaction buffer I, and mixed well; • c. The above a/b solutions were mixed to obtain mixed solutions, respectively.
1.3 Experimental process: • 1.3.1: 2 μl of compound solutions of various concentrations were taken, added to a 384-well plate, and centrifuged 3 minutes; • 1.3.2: 4 μl of kinase solution was added to each well, centrifuged at 5000 rpm and 18° C. for 10 minutes, and shaken on a plate shaker for 10 minutes; • 1.3.3: 4 μl of mixed solution of substrate and ATP was added to each well, centrifuged at 5000 rpm and 18° C. for 10 minutes, and shaken on a plate shaker at 37° C. for 90 minutes; • 1.3.4: The 384-well plate was taken out, and allowed to stand to room temperature; • 1.3.5: 10 μl of ADP-GLO™ reagent was added to each well, centrifuged at 5000 rpm and 18° C. for 18 minutes, and shaken on a plate shaker at 25° C. for 40 minutes, and then the reaction was stopped; • 1.3.6: 20 μl of kinase detection reagent was added to each well, centrifuged at 5000 rpm and 18° C. for 10 minutes, and shaken on a plate shaker at 25° C. for 30 minutes; and • 1.3.7: M1000pro MICROPLATE READER was used to read […] values.
as §1

[4] = male, mouse, po, CD-1 mice, intragastric 10 mg/kg, brain, read-out: Area under curve AUC0-last, Brain
[5] = male, mouse, po, CD-1 mice, intragastric 10 mg/kg, brain, read-out: The time for blood concentration reaching peak Tmax, Brain
[6] = male, mouse, po, CD-1 mice, intragastric 10 mg/kg, plasma, read-out: Area under curve AUC0-last, Plasma
[7] = male, mouse, po, CD-1 mice, intragastric 10 mg/kg, plasma
[8] = male, mouse, po, CD-1 mice, intragastric 10 mg/kg, plasma, read-out: The time for blood concentration reaching peak Tmax, Plasma

Sequence of Pim-1 (P11309 whole entry): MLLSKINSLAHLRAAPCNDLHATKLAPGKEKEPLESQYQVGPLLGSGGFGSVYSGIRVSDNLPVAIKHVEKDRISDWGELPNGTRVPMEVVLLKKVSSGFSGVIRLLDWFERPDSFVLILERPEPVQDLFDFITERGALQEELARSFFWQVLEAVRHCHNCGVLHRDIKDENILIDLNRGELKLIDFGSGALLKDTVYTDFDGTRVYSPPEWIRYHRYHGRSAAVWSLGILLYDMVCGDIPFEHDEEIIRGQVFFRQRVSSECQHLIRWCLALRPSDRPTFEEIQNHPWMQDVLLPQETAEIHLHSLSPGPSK

Row | Compound | IC50 [1] [nM] | AUC(0-t) [2, 4] [ng·h/mL] | Tmax [2, 5] [h] | AUC(0-t) [2, 6] [ng·h/mL] | Cmax [2, 7] [ng/mL] | Tmax [2, 8] [h] | IC50 [3] [nM] | Inhibitory activity on proliferation of the U87MG cell line, in words ([1]; experimental conclusion) | Blood concentration Cmax, Brain ([2]; CD-1 mice, intragastric 10 mg/kg, brain) [ng/mL] | Kp ([2]; male, mouse, brain/plasma, po, CD-1 mice, intragastric 10 mg/kg, ratio, read-out: Cmax Brain/Plasma) | Blood brain distribution, in words ([2]; mice, relative to LY2835219)
1 | CCN1CCN(Cc2ccc(Nc3ncc(F)c(-c4cc(F)c5nc(C)n(C(C)C)c5c4)n3)nc2)CC1 [LY2835219, reference compound] | 151 | 1110 | 6 | 4250 | 836 | 1.5 |  |  |  |  | 
2 | CCN1CCC(c2ccc(Nc3ncc(F)c(-c4cc(F)c5c(c4)C4(CCCC4)C(C)=N5)n3)nc2)CC1 [Example 12, N-(5-(1-ethylpiperidin-4-yl)pyridin-2-yl)-5-fluoro-4-(7′-fluoro-2′-methylspiro [cyclopentane-1,3′-indol]-5′-yl)pyrimidine-2-amino] |  |  |  |  |  |  | 15.1 |  |  |  | 
3 | CC1=Nc2c(F)cc(-c3nc(Nc4ccc(C5CCN(C)CC5)cn4)ncc3F)cc2C12CCCC2 [Example 17, 5-Fluoro-4-(7′-fluoro-2′-methylspiro[cyclopentane-1,3′-indol]-5′-yl)-N-(5-(1-methylpiperidin-4-yl)pyridin-2-yl)pyrimidine-2-amino] | 35.4 | 16800 | 4 | 7660 | 639 | 4 | 38.3 | significant inhibitory activity | 1270 | 1.98 | better blood brain distribution; also recorded: good blood-brain distribution
